Data taken from patent US20260183262A1, “RNA-BINDING MOTIF PROTEIN 39 (RBM39) DEGRADERS FOR TREATMENT OF CANCERS” (RECURSION PHARMACEUTICALS, INC., priority 2022, published 2026).

Legend:
MCL1 = assay: IHC protein expression on OVCAR3 tumor samples: MCL1; assay type: in vivo, human; details: OVCAR3 tumor samples from Example 1 CDX study
Procedure: • Sample Collection: 16 tumor samples were collected across the vehicle, olaparib, E7820 single agent, and paclitaxel arms from the in vivo OVCAR3 CDX study described in Example 1
• 1) Collect fresh specimens and place in 10% NBF (neutral-buffered formalin; fixative volume/tissue, 10˜20 folds), fix at room temperature for 24 hours. • 2) Trim the fixed tissue at the thickness of 3-5 mm. • 3) Move the tissue into the Embedding box, and snap the box into deionized water for 30 minutes, change water twice every 30 minutes. • 4) After washing, the fixed tissues are transferred to the LEICA ASP300S Vacuum Tissue Processor for dehydration.
• All stained sections are scanned with NanoZoomer-HT 2.0 Image system for 40× magnification. High resolution picture for whole section is generated and further quantification analyzed by HALO. All the scanned images are analyzed by HALO™ platform. The whole slide image is analyzed and necrosis and stroma area are excluded, only viable tumor area is scored. The intensity of specific staining is scored at four levels, 0 (negative), 1+(weak staining), 2+(medium staining), 3+(strong staining). The percentages of tumor cells at different intensity levels are evaluated with H-score. H-Score=(% at 0)×0+(% at 1)×1+(% at 2)×2+(% at 3)×3 (H-Score range is 0 to 300).

OVCAR3 cells = assay: CellTiter-Glo cell viability assay in OVCAR3 cell line; assay type: cell-based, human; details: 72 h
Procedure: • Cell culture: OVCAR3 is a human ovarian cancer cell line that is BRCA-proficient and HRD negative. Pharmaron in China acquired this cell line for in vitro testing. OVCAR3 human ovarian tumor cells were maintained in vitro with RPMI-1640 (Glutamax)+0.01 mg/ml insulin+20% FBS+1% PS • Cell Seeding: Cells were harvested from flask into cell culture medium and counted. Cells were diluted with culture medium for below cell densities and 8000 OVCAR cells were plated per well in a 384-well plate (PerkinElmer, Cat. #6007680), using electronic multichannel pipette in 40 μL. For the low control wells, 40 μL PBS was added. […] Plates were covered with lid and spun at 1 min/1000 rpm followed by incubation overnight at 37° C., 5% CO2. • Compound Time: SR4835 and THZ531 were dissolved at 10 mM stock solution and diluted in a 3-fold, 9-point diluted series. Cells were treated with 40 nL of SR4835 and THZ531 by plate reformat Echo550 followed by incubation at 37° C. for 72 h in a CO2 incubator. For the high control, 40 nL DMSO was added. • Readout: CellTiter-Glo@ 2.0 Reagent (Promega, G9242) was removed from the fridge and equilibrated at RT(23° C.) for 60 minutes. Plates were removed from the incubator and allowed to equilibrate to room temperature, for at least 15 minutes. 30 μL CellTiter-Glo® 2.0 Reagent was added to the assay plates and allowed to sit for 30 minutes prior to reading. Luminescence signal was read on Envision. • Calculation: Cell viability (% DMSO control) was calculated using the following equation
• Cell culture: OVCAR3 is a human ovarian cancer cell line that is BRCA-proficient and HRD negative. Pharmaron in China acquired this cell line for in vitro testing. OVCAR3 human ovarian tumor cells were maintained in vitro with RPMI-1640 (Glutamax)+0.01 mg/ml insulin+20% FBS. • Cell Seeding: Cells were harvested from flask into cell culture medium and counted. Cells were diluted with culture medium for below cell densities and 8000 OVCAR cells were plated per well in a 384-well plate (PerkinElmer, Cat. #6007680), using electronic multichannel pipette in 50 μL For the low control wells, 50 μL PBS was added. […] Cells were treated with E7820 and indisulam by plate reformat Echo software and spun 1 min/1000 rpm followed by incubation at 37° C. for 72 h in a CO2 incubator. • Readout: CellTiter-Glo@ 2.0 Reagent (Promega, G9242) was removed from the fridge and equilibrated at RT (23° C.) for 60 minutes. […] 40 μL CellTiter-Glo® 2.0 Reagent was added to the assay plates, and spun 1 min/1000 rpm, then allowed to sit for 20 minutes prior to reading. Luminescence signal was read on Envision. • Calculation: Cell viability (% DMSO control) was calculated using the following equation

## Cc1ccc(NS(=O)(=O)c2cccc(C#N)c2)c2[nH]cc(C#N)c12 [Compound E7820]
MCL1
  MCL1 protein expression (IHC): no changes
OVCAR3 cells
  cell viability: minimal effect on cell viability
